# Results as given in patent US12497460B2, “Anti-MSR1 antibodies and methods of use thereof” (REGENERON PHARMACEUTICALS, INC., priority 2018, dated 2025).
# Tested on: LXR (THP1/LXR-Luc cells)
# Experiment: Cell based LXR responsive luciferase reporter assay (Examples 34A, 34C)
# Conditions: Homo sapiens, payload compounds, differentiated THP-1/LXR-Luc cells (Table 30); for maximal fold induction: read-out: S/N
# Procedure: The activity of certain LXR agonist payloads described herein were assessed in a cell based LXR responsive luciferase reporter assay. To generate the assay cell line, an LXR regulated luciferase reporter gene (Cignal Lenti LXR Reporter (luc) kit (Qiagen, Cat #CLS-001L)) was transduced into THP1 cells and the cells were selected for two weeks in puromycin. The lentivirus expresses the firefly luciferase gene under the control of a minimal CMV promoter and tandem repeats of the LXR transcriptional response element. The resulting cell line is referred to as THP1/LXR-Luc cells. For the assay, THP1/LXR-Luc cells were seeded onto 96 well plates at 40,000 cells/well in media containing RPMI supplemented with 10% FBS and penicillin/streptomycin and were then differentiated with 200 nM Phorbol Myristate Acetate (PMA) for 3 days. The media was subsequently removed and replaced with 80 uL of fresh media without PMA. Three-fold serial dilutions of free payloads were prepared in 100% DMSO, transferred to fresh media, and 20 uL were added to the cells at a final constant DMSO concentration of 0.2% and free payloads at final concentrations ranging from 100 nM to 0.015 nM. The last well in the plate served as blank control containing only the media and 0.2% DMSO (untreated well) and was plotted as a continuation of the 3-fold serial dilution. Forty-eight hours later, luciferase activity was determined after the addition of One-Glo™ reagent (Promega, Cat #E6130) to each well. Relative light units (RLUs) were measured on a Victor luminometer (PerkinElmer) and EC50 values were determined using a four-parameter logistic equation over a 10-point dose response curve (GraphPad Prism). The signal to noise (S/N) was determined by taking the ratio of the highest RLU on the dose response curve to the RLU in the untreated wells.
# Several linker-payloads (LPs) were derived from the payload compounds in Table C and conjugated to an anti-MSR1 antibody (H1H21234N-N297Q) or a non-binding control using the techniques described in the previous example. The resulting anti-MSR1 LXR agonist antibody drug conjugates (ADCs) were tested for activity in the THP1/LXRLuc reporter assay as described above for the payload compounds.
Compound,EC50 [nM],maximal fold induction
"C[C@]1(C(=O)NC(=O)[C@@]2(C)CCC[C@]3(C)c4cc(O)ccc4CC[C@@H]23)CCC[C@]2(C)c3cc(N)ccc3CC[C@@H]12 [P1, (1S,4aS,10aR)-N-[(1S,4aS,10aR)-6-Amino-1,4a-dimethyl-1,2,3,4,4a,9,10,10a-octahydrophenanthrene-1-carbonyl]-6-hydroxy-1,4a-dimethyl-1,2,3,4,4a,9,10,10a-octahydrophenanthrene-1-carboxamide]",1.14,11.4
"C[C@]1(C(=O)NC(=O)[C@@]2(C)CCC[C@]3(C)c4cc(N)ccc4CC[C@@H]23)CCC[C@]2(C)c3cc(N)ccc3CC[C@@H]12 [P2B, (1S,4aS,10aR)-6-Amino-N-((1S,4aS,10aR)-6-amino-1,4a-dimethyl-1,2,3,4,4a,9,10,10a-octahydrophenanthrene-1-carbonyl)-1,4a-dimethyl-1,2,3,4,4a,9,10,10a-octahydrophenanthrene-1-carboxamide]",0.292,11.3
"C[C@]1(C(=O)NC(=O)[C@@]2(C)CCC[C@]3(C)c4cc(NC(=O)CN)ccc4CC[C@@H]23)CCC[C@]2(C)c3cc(N)ccc3CC[C@@H]12 [P4B, (1S,4aS,10aR)-N-[(1S,4aS,10aR)-6-(2-Aminoacetamido)-1,4a-dimethyl-1,2,3,4,4a,9,10,10a-octahydrophenanthrene-1-carbonyl]-6-amino-1,4a-dimethyl-1,2,3,4,4a,9,10,10a-octahydrophenanthrene-1-carboxamide]",0.125,10.4
"C[C@]1(C(=O)NC(=O)[C@@]2(C)CCC[C@]3(C)c4cc(NC(=O)[C@@H](N)CO)ccc4CC[C@@H]23)CCC[C@]2(C)c3cc(N)ccc3CC[C@@H]12 [P5B, (1S,4aS,10aR)-6-Amino-N-((1S,4aS,10aR)-6-((S)-2-amino-3-hydroxypropanamido)-1,4a-dimethyl-1,2,3,4,4a,9,10,10a-octahydrophenanthrene-1-carbonyl)-1,4a-dimethyl-1,2,3,4,4a,9,10,10a-octahydrophenanthrene-1-carboxamide]",0.174,13.8
"C[C@]1(C(=O)NC(=O)[C@@]2(C)CCC[C@]3(C)c4cc(NC(=O)[C@@H](N)CCCCN)ccc4CC[C@@H]23)CCC[C@]2(C)c3cc(N)ccc3CC[C@@H]12 [P6B, (1S,4aS,10aR)-6-Amino-N-((1S,4aS,10aR)-6-((S)-2,6-diaminohexanamido)-1,4a-dimethyl-1,2,3,4,4a,9,10,10a-octahydrophenanthrene-1-carbonyl)-1,4a-dimethyl-1,2,3,4,4a,9,10,10a-octahydrophenanthrene-1-carboxamide]",3.34,10.9
"C[C@]1(C(=O)NC(=O)[C@@]2(C)CCC[C@]3(C)c4cc(NC(=O)[C@@H](N)CC(=O)O)ccc4CC[C@@H]23)CCC[C@]2(C)c3cc(N)ccc3CC[C@@H]12 [P7B, (S)-3-Amino-4-((4bS,8S,8aR)-8-((1S,4aS,10aR)-6-amino-1,4a-dimethyl-1,2,3,4,4a,9,10,10a-octahydrophenanthrene-1-carbonylcarbamoyl)-4b,8-dimethyl-4b,5,6,7,8,8a,9,10-octahydrophenanthren-3-ylamino)-4-oxobutanoic acid]",0.253,12.5
"C[C@]1(C(=O)NC(=O)[C@@]2(C)CCC[C@]3(C)c4cc(NC(=O)[C@@H](N)CCC(=O)O)ccc4CC[C@@H]23)CCC[C@]2(C)c3cc(N)ccc3CC[C@@H]12 [P8B, (S)-4-Amino-5-((4bS,8S,8aR)-8-((1S,4aS,10aR)-6-Amino-1,4a-dimethyl-1,2,3,4,4a,9,10,10a-octahydrophenanthrene-1-carbonylcarbamoyl)-4b,8-dimethyl-4b,5,6,7,8,8a,9,10-octahydrophenanthren-3-ylamino)-5-oxopentanoic acid]",3.51,10.8
"C[C@]1(C(=O)NC(=O)[C@@]2(C)CCC[C@]3(C)c4cc(NC(=O)[C@@H](N)Cc5cnc[nH]5)ccc4CC[C@@H]23)CCC[C@]2(C)c3cc(N)ccc3CC[C@@H]12 [P9B, (1S,4aS,10aR)-6-amino-N-((1S,4aS,10aR)-6-((S)-2-amino-3-(1H-imidazol-4-yl)propanamido)-1,4a-dimethyl-1,2,3,4,4a,9,10,10a-octahydrophenanthrene-1-carbonyl)-1,4a-dimethyl-1,2,3,4,4a,9,10,10a-octahydrophenanthrene-1-carboxamide]",0.234,12.8
"C[C@]1(C(=O)NC(=O)[C@@]2(C)CCC[C@]3(C)c4cc(NC(=O)[C@@H](N)CCC(=O)O)ccc4CC[C@@H]23)CCC[C@]2(C)c3cc(NC(=O)CN)ccc3CC[C@@H]12 [P10B, (S)-4-Amino-5-((4bS,8S,8aR)-8-((1S,4aS,10aR)-6-(2-aminoacetamido)-1,4a-dimethyl-1,2,3,4,4a,9,10,10a-octahydrophenanthrene-1-carbonylcarbamoyl)-4b,8-dimethyl-4b,5,6,7,8,8a,9,10-octahydrophenanthren-3-ylamino)-5-oxopentanoic acid]",0.222,11.1
"C[C@]1(C(=O)NC(=O)[C@@]2(C)CCC[C@]3(C)c4cc(NC(=O)[C@@H](N)CCC(=O)O)ccc4CC[C@@H]23)CCC[C@]2(C)c3cc(NC(=O)[C@@H](N)CCC(=O)O)ccc3CC[C@@H]12 [P11B, (4S,4'S)-5,5′-(4bS,4b'S,8S,8aR,8'S,8a′R)-8,8′-(Azanediylbis(oxomethylene))bis(4b,8-dimethyl-4b,5,6,7,8,8a,9,10-octahydrophenanthrene-8,3-diyl)bis(azanediyl)bis(4-amino-5-oxopentanoic acid)]",0.112,10.7
"C[C@H](NC(=O)[C@@H](N)CCC(=O)O)C(=O)Nc1ccc2c(c1)[C@@]1(C)CCC[C@](C)(C(=O)NC(=O)[C@@]3(C)CCC[C@]4(C)c5cc(N)ccc5CC[C@@H]34)[C@@H]1CC2 [P12B, (S)-4-Amino-5-((S)-1-((4bS,8S,8aR)-8-((1S,4aS,10aR)-6-amino-1,4a-dimethyl-1,2,3,4,4a,9,10,10a-octahydrophenanthrene-1-carbonylcarbamoyl)-4b,8-dimethyl-4b,5,6,7,8,8a,9,10-octahydrophenanthren-3-ylamino)-1-oxopropan-2-ylamino)-5-oxopentanoic acid]",0.296,11.4
